What was measured:
hESCs = assay: Direct comparison BIO versus CP21R7 to differentiate hESCs into CD144+ endothelial cells; assay type: cell-based, human
Procedure: FIG. 6: Direct comparison BIO versus CP21R7 to differentiate hESCs into endothelial cells CD144+. hESCs have been differentiated in monolayer conditions in parallel using different concentrations at Day 1 (0 μM, 0.5 μM, 1 μM, 2 μM) for the BIO or for the COMPOUND 21 (CP21R7) as supplement to the carrier medium N2B27, followed at Day 4 with induction medium VEGF-A 50 ng/ml and Forskolin 5 μM for all the conditions.
The method of Tatsumi et al employs the BIO inhibitor at different concentrations as supplement to the N2B27. Although Tatsumi et al. describes that the pluripotent stem cells were differentiated to endothelial cells with about 20% efficiency (determined by endothelial cells expressing the surface marker CD144), we were not able to reproduce such results.

human PSCs = assay: Endothelial induction by GSK3 inhibitors, flow cytometric VE-Cadherin (CD144) expression on day 5; assay type: cell-based
Procedure: (§1) The potential of the most widely used commercial GSK30 inhibitors and CP21R7 to activate β-catenin-mediated TCF/LEF transcription in human PA-1 reporter cells (DeAlmeida et al., 2007) was evaluated. […] Unmodified PA-1 cells are used to measure cellular viability via ATP levels and GLI-luciferase responsive reporter PA-1 cells as counter screen to monitor changes in general transcriptional activity. […] On the outcome of the β-Catenin reporter assay, three GSk3β inhibitors namely BIO, CHIR and CP were exploited for their potential to drive vascular lineage commitment of human PSCs. In addition to the listed inhibitors we include SB216763 (SB) due to its structure similarity to CP (see FIG. 18). Pluripotent stem cells were (i) plated as single-cells on mTeSR1 medium supplemented with Y-27632 a Rho-kinase inhibitor (Watanabe et al., 2007); (ii) incubated in priming medium (N2B27 medium supplemented with a GSK303 inhibitor) and (iii) incubated in induction medium (StemPro SFM 34 medium supplemented with Vascular Endothelial Growth Factor (VEGF; Sumi et al., 2008)) as outlined above under 1 (i) and (ii).
The Following GSK3 Inhibitors were Used: CHIR99021 GSK3-Inhibitor: Catalogue Number: 361559 from Merck Millipore SB216763 GSK3-Inhibitor: Catalogue Number: 361566 from Merck Millipore BIO GSK3-Inhibitor: Catalogue Number: 3 361550 from Merck Millipore CP21R7: 3-(3-Amino-phenyl)-4-(1-methyl-1H-indol-3-yl)-pyrrole-2,5-dione (also referred to as “compound 21” herein; see e.g. L. Gong et al; Bioorganic & Medicinal Chemistry Letters 20 (2010), 1693-1696).
Proliferation into vascular bed cells was detected on Day 5. Vascular identity is confirmed by the expression of vascular endothelial-cadherin (VE-Cadherin). The capability to induce vascular bed cells was determined by VE-Cadherin (CD144) expression on day 5 (FIG. 19). […] Remarkably, up to 35% of cells expressed CD144 at an optimal concentration of 1 μM from day five on. […] CHIR, which has a divergent chemical structure than CP induced CD144 expression also in a parabolic curve reaching an optimum at 6 μM. […] Although, SB and CP share the same chemical backbone, divergent moieties may influence the chemical properties, e.g. cellular permeability or solubility. In carrier treated cells no VE-CADHERIN expression was detected (FIG. 19).

[1] = system: β-catenin-mediated TCF/LEF transcription; assay: TCF/LEF reporter assay in human PA-1 reporter cells; assay type: cell-based; settings: for dose-response activation curve: dose-response assay
Procedure: FIG. 19: Compound selection. TCF/LEF reporter assay in human PA-1 reporter cells (DeAlmeida et al., 2007). After the treatment of reporter cells with GSk3 inhibitors at indicated concentrations β-catenin-mediated TCF/LEF transcriptional activity was measured as luciferase activity. The Compound Cp21R7 induced highest luciferase activity at a concentration of 3 μM.
as §1

[2] = system: GLI-luciferase responsive reporter PA-1 cells; assay: GLI-luciferase responsive reporter PA-1 cells counter screen (general transcriptional activity); assay type: cell-based, human
Procedure: as §1

Unmodified PA-1 cells = assay: Cellular viability via ATP levels in unmodified PA-1 cells; assay type: cell-based, human
Procedure: as §1

[3] = system: human embryonic stem cell; settings: 5 μM 3 days, then VEGF 2 days; Tatsumi et al.; cited from earlier work
[4] = system: Human Embryonic Stem cells; assay: Quantification of CD144+ stem cell-derived endothelial cells by image based high content analysis
Procedure: FIG. 2A: Quantification CD144+ Stem Cell-Derived Endothelial Cells by image based high content analysis (HCA). Human Embryonic Stem cells have been differentiated in monolayer conditions with different small molecules. Upper and middle panel: Day 1 priming medium with different compounds; Day 4 induction medium+VEGF-A 50 ng/ml. Carrier N2B27 alone (upper panel, left); Wnt3a 150 ng/ml added to the priming medium (upper panel, right); SB216763 6 μM added to the priming medium (middle panel, left), CHIR 9902 2 μM added to the priming medium (middle panel, right). Lower panels: Day 1 priming medium with 2 μM Compound 21 (CP21R7); Day 4 induction medium+VEGF-A 50 ng/ml (lower panel, left) and Day 4 induction medium+VEGF-A 50 ng/ml+Forskolin 5 μM (lower panel, right). DAPI (cell nuclei) CD144 (membrane staining).
FIG. 2B: Quantification graph: Percent CD144+ positive cells.
(§2) Before the enzymatic dissociation of hPSC colonies using StemPro Accutase (Invitrogen) cells are preincubated for one hour with 10 μM ROCK-Inhibitor Y27632. 35.000 single hPSCs per cm^2 are plated onto growth factor reduced Matrigel (BD bioscience) coated cell culture plates in TeSR2 medium supplemented with 10 μM ROCK-Inhibitor. On day1 attachment medium is exchanged to N2B27 (Gibco) medium supplemented with (a) 2 μM Compound 21 (CP21R7) or (b) 1 μM Compound 21 (CP21R7) and 25 ng/ml BMP4 (R&D Systems). Cells are cultivated for additional 3 days without media change.
(§3) On day 4 priming medium is replaced with StemPro-34 SFM medium (Invitrogen) supplemented with (a) 50 ng/ml VEGF and 5 μM Forskolin or (b) 200 ng/ml VEGF and 2 μM Forskolin. On day 5 induction medium is withdrawn and cells are used for MACS separation of CD144+ cells.

pluripotent stem cells [5] = assay: Flow cytometry of CD144+ endothelial cells after monolayer differentiation; assay type: cell-based, human
Procedure: FIG. 3: Flow Cytometry analysis of the pluripotent stem cell-derived CD144+ endothelial cells. Endothelial cells differentiated in monolayer conditions (priming medium 2 μM CP21R7, induction medium VEGF-A 50 ng/ml and Forskolin 5 μM) were analyzed before and after MACS sorting for the CD144+ expression. Before MACS Sorting 32.5% CD144+ endothelial cells and after MACS sorting 96.5% CD144+ endothelial cells.
as §2, §3

PSCs [6] = assay: Immunostainings of differentiation markers over time; assay type: cell-based, human
Source text: Immunostainings of SOX17, OCT4, T-BRACHYURY, PECAM-1 and VE-CADHERIN support the transcriptome data (Quantification shown in FIG. 9). The protein expression of the pan-mesodermal marker T-BRACHYURY confirms an intermediate PS-like cell stage. […] The vast majority of cells reached a T-BRACHYURY peak expression on day three. On day four the expression diminished and disappeared, thereby mimicking its specific embryonic expression pattern (Tam and Loebel, 2007). Loss of pluripotency was monitored by the time-dependent decline of OCT4 expression. […] Induction of endothelial cell identity was determined by the co-expression of platelet-endothelial cell adhesion molecule-1 (PECAM1) and VE-CADHERIN. Endothelial marker expression was detected upon administration of VEGF on day 4 (FIG. 9). […] Our differentiation system enables high throughput derivation of endothelial cells within 5 days through a transient emergence of primitive streak cells.

PSCs [7] = assay: Genome-wide gene expression analysis during differentiation; assay type: cell-based, human
pluripotent stem cells [8] = assay: VSMC induction, flow cytometric CD31/CD140b distribution; assay type: cell-based, human; settings: induction medium replaced by RPMI medium with 0.5 μM IWR
Source text: Cell types differed by morphology as well as by marker expression. Cobblestone-like cells with tight cell-cell contacts expressed the endothelial-specific marker VE-Cadherin. Flattened and spindle-like shaped cells stained positive for Smooth Muscle Actin (αSMA), indicating a vascular smooth muscle cell (VSMC) identity. In flow cytometric analysis cells separated into a major fraction of CD31^+/CD140^+ cells and minor fraction of CD31^−/CD140b^+ cells (FIG. 10).

SC-derived ECs = assay: Tube formation assay of SC-derived ECs on Matrigel matrix; assay type: cell-based, human; settings: data not shown
Procedure: In order to define the endothelial phenotype more profoundly, the angiogenic potential, the ability to uptake DiI-acetylated low-density lipoprotein (DiI-ac-LDL) was assessed and the dynamic modulation of the barrier function was monitored. For tube formation assays SC-derived ECs were seeded onto a Matrigel matrix.

Molecule: O=C1Nc2cc(Br)ccc2/C1=C1/Nc2ccccc2/C1=N\O [BIO, (2′Z, 3′E)-6-bromoindirubin-3′-oxime]
- maximum expression of the CD144 (hESCs; 0.5 μM at Day 1 in N2B27, induction medium VEGF-A 50 ng/ml and Forskolin 5 μM): 5%
- cytotoxicity (hESCs; already at concentrations of 1 μM): strong cytotoxicity
- toxicity to the cells (hESCs; the other concentrations (1 μM, 2 μM)): toxic to the cells
- toxicity on single cells (human PSCs; data not shown): toxic on single cells
- dose-response activation curve [1]: steep activation curve
- GLI-mediated luciferase activity ([2]; data not shown): three-fold increase
- toxicity (Unmodified PA-1 cells; concentration of 10 μM, data not shown): highly toxic
- efficiency determined by endothelial cells expressing the surface marker CD144 [3]: about 20%

Molecule: Cn1cc(C2=C(c3cccc(N)c3)C(=O)NC2=O)c2ccccc21 [CP21R7, 3-(3-Amino-phenyl)-4-(1-methyl-1H-indol-3-yl)-pyrrole-2,5-dione]
- CD144+ cells ([4]; 2 μM added to the priming medium, day 4 induction medium + VEGF-A 50 ng/ml): 40.2%
- CD144+ cells ([4]; 2 μM added to the priming medium, induction medium + VEGF-A 50 ng/ml + Forskolin 5 μM): 54.6%
- CD144 expression (hESCs; dose response 0.5 μM, 1 μM, 2 μM, induction VEGF-A 50 ng/ml and Forskolin 5 μM): up to 35%
- optimal concentration for CD144 expression (human PSCs; bell-shaped / parabolic curve, day 5): 1 µM
- cells expressed CD144 (human PSCs; optimal concentration of 1 μM, from day five on): up to 35%
- maximum increased luciferase activity ([1]; at 3 μM): 566 fold
- concentration of highest luciferase activity ([1]; bell-shaped curve): 3 µM
- dose-response activation curve [1]: steep activation curve
- general transcriptional activity [2]: minor increases of general transcriptional activity
- cell proliferation (Unmodified PA-1 cells; at maximum luciferase activity): only a modest gain of cell proliferation
- CD144 expression, cells on day six (pluripotent stem cells [5]; priming 1 μM CP with 25 ng/ml BMP4, induction 200 ng/ml VEGF with 2 μM Forskolin): up to 85%
- CD144+ endothelial cells before MACS sorting (pluripotent stem cells [5]; priming medium 2 μM CP21R7, induction medium VEGF-A 50 ng/ml and Forskolin 5 μM): 32.5%
- SOX17+ cells (PSCs [6]; CP21 alone, day three): salt and pepper staining pattern of SOX17^+ cells
- SOX17+ cells (PSCs [6]; combined application of CP and BMP4): prevented the appearance of endodermal SOX17^+ cells
- T-BRACHYURY expression (PSCs [6]; treatment with CP and BMP4): induced T-BRACHYURY expression quickly after one day
- mesoderm markers MIXL1, T/BRACHYURY, FGF4 and EOMES (PSCs [7]; 24 hours upon combined CP and BMP4 treatment): Upregulation
- pluripotency markers NANOG, UIF1 and SOX2 (PSCs [7]; 24 hours upon combined CP and BMP4 treatment, data not shown): downregulated

Molecule: O=C(Nc1cccc2cccnc12)c1ccc(N2C(=O)[C@@H]3[C@H](C2=O)[C@@H]2C=C[C@H]3C2)cc1 [IWR]
- distribution of CD31+/CD140b− and CD31−/CD140b+ cells (pluripotent stem cells [8]): inverted distribution

Molecule: Cn1cc(C2=C(c3ccc(Cl)cc3Cl)C(=O)NC2=O)c2ccccc21 [SB216763, 3-(2,4-Dichlorophenyl)-4-(1-methyl-1H-indol-3-yl)-1H-pyrrole-2,5-dione, reference compound]
- CD144+ cells ([4]; 6 μM added to the priming medium, day 4 induction medium + VEGF-A 50 ng/ml): 0.5%
- CD144 expression (human PSCs; day 5, flow cytometry): no CD144 expression was observed
- TCF/LEF luciferase expression ([1]; concentration dependent administration): negligible

Molecule: C[S+]([O-])CCCCN=C=S (centres unmarked) [Sulforaphane]
- tube formation, number of nodes, length of tubes (SC-derived ECs): perturbed tube formation and reduced the number of nodes as well as the length of tubes

Molecule: VEGF
- upregulation of endothelial markers CD34, PECAM1, CDH5 and vWF (PSCs [7]; within the first 24 hours upon VEGF, data not shown): more than 100 fold

B1: Wnt3a: Wnt3a added to the priming medium (protein, UniProt P56704 19-352, looked up)
Protein Wnt-3a: SYPIWWSLAVGPQYSSLGSQPILCASIPGLVPKQLRFCRNYVEIMPSVAEGIKIGIQECQHQFRGRRWNCTTVHDSLAIFGPVLDKATRESAFVHAIASAGVAFAVTRSCAEGTAAICGCSSRHQGSPGKGWKWGGCSEDIEFGGMVSREFADARENRPDARSAMNRHNNEAGRQAIASHMHLKCKCHGLSGSCEVKTCWWSQPDFRAIGDFLKDKYDSASEMVVEKHRESRGWVETLRPRYTYFKVPTERDLVYYEASPNFCEPNPETGSFGTRDRTCNVSSHGIDGCDLLCCGRGHNARAERRREKCRCVFHWCCYVSCQECTRVYDVHTCK
- CD144+ cells ([4]; 150 ng/ml added to the priming medium, day 4 induction medium + VEGF-A 50 ng/ml): 0.8%
